Results reported in US20100068545A1, “Compositions and methods for wood preservation” (priority 2005, published 2010).

Assays:
decay fungi = experiment: AWPA E7-01 field stake test, decay ratings, Gainesville, Florida; assay type: in vivo; parameters: scale not given here
Description: (§1) Preservative treating solutions were prepared by the mixing the concentrates in Example 1 with ethanol. The treated stakes were installed in Gainesville, Fla. for field performance evaluation following the procedure described in American Wood Preservers' Association (AWPA) Standard E7-01: “Standard Method of Evaluating Wood Preservatives by Field Tests with Stakes”.
(§2) Preservative treating solutions were prepared by the mixing the concentrates in Example 1 with toluene. The treated stakes were installed in Gainesville, Fla. for field performance evaluation following the procedure described in American Wood Preservers' Association (AWPA) Standard E7-01: “Standard Method of Evaluating Wood Preservatives by Field Tests with Stakes”.
Preservative treating solutions were prepared by the mixing the concentrates in Example 2 and 13. The treated stakes were installed in Gainesville, Fla. for field performance evaluation following the procedure described in American Wood Preservers' Association (AWPA) Standard E7-01: “Standard Method of Evaluating Wood Preservatives by Field Tests with Stakes”. […]

termites = experiment: AWPA E7-01 field stake test, termite ratings, Gainesville, Florida; assay type: in vivo; parameters: scale not given here
Description: as §1, §2
Preservative treating solutions were prepared by the mixing the concentrates in Example 2 and 13. The treated stakes were installed in Gainesville, Fla. for field performance evaluation following the procedure described in American Wood Preservers' Association (AWPA) Standard E7-01: “Standard Method of Evaluating Wood Preservatives by Field Tests with Stakes”.
Preservative treating solutions were prepared by the mixing the concentrates in Example 1 with white spirits. The treated stakes were installed in Gainesville, Fla. for field performance evaluation following the procedure described in American Wood Preservers' Association (AWPA) Standard E7-01: “Standard Method of Evaluating Wood Preservatives by Field Tests with Stakes”.

brown rots or white rots = experiment: Accelerated decay testing in the lab; conditions: pyrethroid insecticide alone
Text: Provided herein is an organic composition and method for use thereof in treatment of cellulosic material, more particularly wood. The composition comprises an azole or quaternary ammonium fungicide compound, and a pyrethroid insecticide. The composition imparts to the treated wood resistance to both fungi and insects. […] This has been confirmed by accelerated decay testing in the lab.

[1] = 12 months, retention 0.32 kg/m^3, Ex. 14, ethanol solution
[2] = 12 months, retention 0.32 kg/m^3, Ex. 15, toluene solution
[3] = 12 months, retention 0.32 kg/m^3, Ex. 16, concentrates of Ex. 2 and 13
[4] = 12 months, retention 0.48 kg/m^3, Ex. 14, ethanol solution
[5] = 12 months, retention 0.48 kg/m^3, Ex. 15, toluene solution
[6] = 12 months, retention 0.48 kg/m^3, Ex. 16, concentrates of Ex. 2 and 13
[7] = 12 months, retention 0.64 kg/m^3, Ex. 14, ethanol solution
[8] = 12 months, retention 0.64 kg/m^3, Ex. 15, toluene solution
[9] = 12 months, retention 0.64 kg/m^3, Ex. 16, concentrates of Ex. 2 and 13
[10] = 24 months, retention 0.32 kg/m^3, Ex. 14, ethanol solution
[11] = 24 months, retention 0.32 kg/m^3, Ex. 15, toluene solution
[12] = 24 months, retention 0.32 kg/m^3, Ex. 16, concentrates of Ex. 2 and 13
[13] = 24 months, retention 0.48 kg/m^3, Ex. 14, ethanol solution
[14] = 24 months, retention 0.48 kg/m^3, Ex. 15, toluene solution
[15] = 24 months, retention 0.48 kg/m^3, Ex. 16, concentrates of Ex. 2 and 13
[16] = 24 months, retention 0.64 kg/m^3, Ex. 14, ethanol solution
[17] = 24 months, retention 0.64 kg/m^3, Ex. 15, toluene solution
[18] = 24 months, retention 0.64 kg/m^3, Ex. 16, concentrates of Ex. 2 and 13
[19] = 36 months, retention 0.32 kg/m^3, Ex. 14, ethanol solution
[20] = 36 months, retention 0.32 kg/m^3, Ex. 15, toluene solution
[21] = 36 months, retention 0.32 kg/m^3, Ex. 16, concentrates of Ex. 2 and 13
[22] = 36 months, retention 0.48 kg/m^3, Ex. 14, ethanol solution
[23] = 36 months, retention 0.48 kg/m^3, Ex. 15, toluene solution
[24] = 36 months, retention 0.48 kg/m^3, Ex. 16, concentrates of Ex. 2 and 13
[25] = 36 months, retention 0.64 kg/m^3, Ex. 14, ethanol solution
[26] = 36 months, retention 0.64 kg/m^3, Ex. 15, toluene solution
[27] = 36 months, retention 0.64 kg/m^3, Ex. 16, concentrates of Ex. 2 and 13
[28] = 48 months, retention 0.32 kg/m^3, Ex. 14, ethanol solution
[29] = 48 months, retention 0.32 kg/m^3, Ex. 15, toluene solution
[30] = 48 months, retention 0.32 kg/m^3, Ex. 16, concentrates of Ex. 2 and 13
[31] = 48 months, retention 0.48 kg/m^3, Ex. 14, ethanol solution
[32] = 48 months, retention 0.48 kg/m^3, Ex. 15, toluene solution
[33] = 48 months, retention 0.48 kg/m^3, Ex. 16, concentrates of Ex. 2 and 13
[34] = 48 months, retention 0.64 kg/m^3, Ex. 14, ethanol solution
[35] = 48 months, retention 0.64 kg/m^3, Ex. 15, toluene solution
[36] = 48 months, retention 0.64 kg/m^3, Ex. 16, concentrates of Ex. 2 and 13

## CC(C)(C)C(O)(CCc1ccc(Cl)cc1)Cn1cncn1 (racemic) [Tebuconazole, (RS)-1-p-chlorophenyl-4,4-dimethyl-3-(1H-1,2,4-triazol-1-ylmethyl)pentan-3-ol]
Decay fungi; [1]
  Average Decay Rating: 8.2
Decay fungi; [2]
  Average Decay Rating: 8.2
Decay fungi; [3]
  Average Decay Rating: 8.2
Decay fungi; [4]
  Average Decay Rating: 5.8
Decay fungi; [5]
  Average Decay Rating: 5.8
Decay fungi; [6]
  Average Decay Rating: 5.8
Decay fungi; [7]
  Average Decay Rating: 8.7
Decay fungi; [8]
  Average Decay Rating: 8.7
Decay fungi; [9]
  Average Decay Rating: 8.7
Decay fungi; [10]
  Average Decay Rating: 2.6
Decay fungi; [11]
  Average Decay Rating: 2.6
Decay fungi; [12]
  Average Decay Rating: 2.6
Decay fungi; [13]
  Average Decay Rating: 0.8
Decay fungi; [14]
  Average Decay Rating: 0.8
Decay fungi; [15]
  Average Decay Rating: 0.8
Decay fungi; [16]
  Average Decay Rating: 1.2
Decay fungi; [17]
  Average Decay Rating: 1.2
Decay fungi; [18]
  Average Decay Rating: 1.2
Decay fungi; [19]
  Average Decay Rating: 0.0
Decay fungi; [20]
  Average Decay Rating: 0.0
Decay fungi; [21]
  Average Decay Rating: 0.0
Decay fungi; [22]
  Average Decay Rating: 0.0
Decay fungi; [23]
  Average Decay Rating: 0.0
Decay fungi; [24]
  Average Decay Rating: 0.0
Decay fungi; [25]
  Average Decay Rating: 0.0
Decay fungi; [26]
  Average Decay Rating: 0.0
Decay fungi; [27]
  Average Decay Rating: 0.0
Decay fungi; [28]
  Average Decay Rating: 0.0
Decay fungi; [29]
  Average Decay Rating: 0.0
Decay fungi; [30]
  Average Decay Rating: 0.0
Decay fungi; [31]
  Average Decay Rating: 0.0
Decay fungi; [32]
  Average Decay Rating: 0.0
Decay fungi; [33]
  Average Decay Rating: 0.0
Decay fungi; [34]
  Average Decay Rating: 0.0
Decay fungi; [35]
  Average Decay Rating: 0.0
Decay fungi; [36]
  Average Decay Rating: 0.0
termites; [1]
  Average Termite Rating: 4.2
termites; [2]
  Average Termite Rating: 4.2
termites; [3]
  Average Termite Rating: 4.2
termites; [4]
  Average Termite Rating: 4.5
termites; [5]
  Average Termite Rating: 4.5
termites; [6]
  Average Termite Rating: 4.5
termites; [7]
  Average Termite Rating: 4.8
termites; [8]
  Average Termite Rating: 4.8
termites; [9]
  Average Termite Rating: 4.8
termites; [10]
  Average Termite Rating: 0.6
termites; [11]
  Average Termite Rating: 0.6
termites; [12]
  Average Termite Rating: 0.6
termites; [13]
  Average Termite Rating: 1.2
termites; [14]
  Average Termite Rating: 1.2
termites; [15]
  Average Termite Rating: 1.2
termites; [16]
  Average Termite Rating: 2.0
termites; [17]
  Average Termite Rating: 2.0
termites; [18]
  Average Termite Rating: 2.0
termites; [19]
  Average Termite Rating: 0.0
termites; [20]
  Average Termite Rating: 0.0
termites; [21]
  Average Termite Rating: 0.0
termites; [22]
  Average Termite Rating: 0.0
termites; [23]
  Average Termite Rating: 0.0
termites; [24]
  Average Termite Rating: 0.0
termites; [25]
  Average Termite Rating: 0.0
termites; [26]
  Average Termite Rating: 0.0
termites; [27]
  Average Termite Rating: 0.0
termites; [28]
  Average Termite Rating: 0.0
termites; [29]
  Average Termite Rating: 0.0
termites; [30]
  Average Termite Rating: 0.0
termites; [31]
  Average Termite Rating: 0.0
termites; [32]
  Average Termite Rating: 0.0
termites; [33]
  Average Termite Rating: 0.0
termites; [34]
  Average Termite Rating: 0.0
termites; [35]
  Average Termite Rating: 0.0
termites; [36]
  Average Termite Rating: 0.0

## Cc1c(COC(=O)[C@@H]2[C@H](/C=C(\Cl)C(F)(F)F)C2(C)C)cccc1-c1ccccc1 (racemic) [bifenthrin]
Brown rots or white rots
  Fungicidal activity against brown rots or white rots: generally do not have fungicidal activity

## CC1(C)C(C=C(Cl)Cl)C1C(=O)OC(C#N)c1cccc(Oc2ccccc2)c1 (stereo not drawn) [cypermethrin]
Brown rots or white rots
  Fungicidal activity against brown rots or white rots: generally do not have fungicidal activity

## CC1(C)C(C=C(Cl)Cl)C1C(=O)OCc1cccc(Oc2ccccc2)c1 (stereo not drawn) [permethrin]
Brown rots or white rots
  Fungicidal activity against brown rots or white rots: generally do not have fungicidal activity
